Data on two compounds can be found in patent US8517736B2, “Method for alleviating the undesired side effects of dental bleaching” (Dr. Gunnar Rolla Consultant AS, priority 2011, dated 2013).

For series [1] the following is noted: saturated, or less than saturated, aqueous solutions.
Series [2] deals with hypersensitive bleached front teeth. As for the experimental part:
A volunteer had performed a self-bleaching procedure on their teeth, using a home kit. They complained and described their front teeth as extremely sensitive for changes of temperature in drinks or food. The teeth were rinsed carefully with water at room temperature, and isolated with cotton rolls. The teeth were kept dry and then treated with a generous amount of a saturated aqueous solution of Ca(OH)2, at an acceptable temperature, for a period of about 5 minutes. After a few additional minutes the cotton rolls were removed, and treatment with an aqueous solution of 2.0% by weight of NaF was performed, to induce formation CaF2, to stabilize the calcium added.

Series [3] can be described thus: SEM micrographs of bleached human tooth enamel surface. Particulars: human tooth enamel after bleaching with peroxide.
From the text: FIG. 2: A SEM micrograph showing the same tooth surface (from FIG. 1) covered with a film of dehydrated Ca(OH)2.
FIG. 3: A SEM micrograph showing the same tooth surface (from FIG. 2) subsequently treated with 2% by weight NaF-solution.

Where two headings read alike, the source gives them in different places. Bounds are passed on as bounds.

Turning to `[Ca+2].[OH-].[OH-]` [Ca(OH)2, calcium hydroxide], the pH is given as greater than 10 in series [1] and 14 in series [1] (listed as calcium hydroxide). Besides, the “tooth colour after treatment” value in series [2] (after saturated Ca(OH)2 then 2.0% NaF treatment) is “maintained an acceptable colour”. Moreover, the “reappearance of sensitivity after treatment” value in series [2] (follow-up after saturated Ca(OH)2 then 2.0% NaF treatment) is reported as “sensitivity has not reappeared”. Also, the “hypersensitivity of bleached teeth after treatment” value in series [2] (volunteer, saturated aqueous Ca(OH)2 about 5 minutes, followed by aqueous 2.0% by weight NaF) is “hypersensitivity was eliminated”.
In the case of `OO` [peroxide, hydrogen peroxide], the “enamel surface appearance after bleaching (SEM, FIG. 1)” value in series [3] was “pitted and damaged by demineralization”.
